Assays:
[1] = tested on: Alzheimer's patients; conditions: cilostazol alone in Alzheimer's patients, Non-patent Document 10; cited from earlier work
[2] = tested on: Tg-SwDI mice; assay: Perivascular Aβ deposition by immunohistochemical staining; format: in vivo; conditions: vs ordinary feed group
Description: To verify interstitial flow improvement by cilostazol, inhibition of deposition of harmful proteins on the cerebrovascular lymph drainage pathway by cilostazol was examined by using a cerebral amyloid angiopathy model. Totally unlike a drainage system through a specific receptor or antigen-antibody reaction, drainage of harmful proteins through the interstitial flow is a general drainage system irrespective of the type and amount of proteins, and Aβ in these examples is merely an example of intracerebral harmful proteins for which the interstitial flow is improved so that deposition on the cerebrovascular lymph drainage pathway is inhibited.
After 15 months from the start of breeding, with respect to Tg-SwDI mice of a group administered with cilostazol-containing feed for 13.5 months and Tg-SwDI mice of the ordinary feed administered group, the brain was perfusion-fixed by using 4% paraformaldehide, and the extracted brain was dehydrated for one day. Then, a paraffin block of a fixed brain tissue was prepared, and a paraffin block was sliced to 6 microns with a microtome. […] An ImageJ (NIH) was used as image analysis software. Five regions of interest were randomly selected from the frontal lobe and the hippocampus region in a tissue section, and photographed in a field with a magnification of 200. The measured data was analyzed by using a t test.

[3] = tested on: MCI patients; assay: Clinical record analysis, MMSE change in MCI patients (MMSE 22 to 26) under donepezil hydrochloride oral administration; format: in vivo, human; conditions: additional oral cilostazol in MCI patients under donepezil hydrochloride
Description: Patients subjected to oral administration of donepezil hydrochloride, having an observation period of one or more years before the MMSE test date, and having first MMSE scores less than or equal to 26 were picked up from a clinical record. Among the patients, patients recorded to have been consecutively administered with cilostazol for 6 months or more in the observation period were classified as a donepezil hydrochloride and cilostazol combined use group (69 cases), and patients recorded to have experienced no cilostazol oral administration were classified as a donepezil hydrochloride single use group (87 cases). Cilostazol was oral-administered at a dosage of 50 to 200 mg/day in the morning and evening, and donepezil hydrochloride was administered at a dosage of 5 mg/day once in a day. Among the patients, patients with MMSE scores greater than or equal to 22 and less than or equal to 26 were extracted as an MCI patient group. Then, 36 cases (16 males and 20 females, average age: 78.4 years old) of the donepezil hydrochloride single use group (hereinafter referred to as a single use group) and 34 cases (15 males and 19 females, average age: 77.2 years old) of the donepezil hydrochloride and cilostazol combined use group (hereinafter referred to as combined use group) were found. The average dosage of cilostazol in the combined use group was 121 mg/day. […] Measurement of MMSE was conducted at least twice in the observation period, and the first and last test results were selected for analysis.

[4] = tested on: dementia patients; assay: Retrospective clinical survey, MMSE change in dementia patients with first MMSE score less than or equal to 21; format: in vivo, human
Description: Thus, it is not worth referring to these reports. It is assumed that a considerable degree of irreversible neurodegeneration has progressed in dementia patients, and in view of the action mechanism of the interstitial flow-improving agent, a sufficient therapeutic effect of the interstitial flow-improving agent might not be present for dementia patients. Thus, to evaluate the influence of consecutive oral administration of cilostazol on the cognitive function, a survey of consecutive cases (3183 cases in total) for which record of cilostazol administration between 1996 and 2012 exists was conducted, and examination was conducted by using all the cases matching the following conditions. In this study, to eliminate the influence of anti-dementia drugs, patients administered with anti-dementia drugs such as donepezil were removed from the analysis.
(i) The mini mental state exam (MMSE), which is a typical test of cognitive function, was conducted twice or more with an interval of 6 months or more (in a case where the MMSE was performed three or more times, two examination results of the first examination and the last examination were selected);
(ii) The first MMSE score was less than or equal to 21;
(iii) A case in which cilostazol was administered in a period at least more than a half of an MMSE observation period was selected as a group (hereinafter referred to as a treated group) subjected to consecutive treatment; and
(iv) A case in which cilostazol was administered in two months or less in an MMSE observation period was selected as a group (hereinafter referred to as an untreated group) not subjected to consecutive treatment.
(i) The rate of change in MMSE score in each group (calculation method: [last MMSE score−first MMSE score]/MMSE observation period [years]). In comparison between the two groups, statistical analysis was conducted such that the rate difference was obtained by using a chi-square test and other items were obtained by using a t test.

[5] = tested on: Tg-SwDI mice; assay: Cerebral artery reactivity to CO2 supply (vascular pulsation driving force) in Tg-SwDI mice; format: in vivo; conditions: vs ordinary feed group
Description: In brain interstitial flow in a central nervous system, vascular wall motion caused by vascular pulsation of artery serves as a driving force so that harmful proteins are excreted (see Mechanisms to explain the reverse perivascular transport of solutes out of the brain. J Theor Biol. 2006 Feb. 21; 238(4): 962-74), Dilation of artery in vascular pulsation is caused by an increased blood pressure in artery due to pulsation of heart, and a decrease in dilation ability of artery attenuates vascular wall motion, and also reduces the interstitial flow. […] The degree of vascular elasticity in cerebral artery can be evaluated by using reactivity with a change in the concentration of blood carbon dioxide. Specifically, cerebral artery whose vascular elasticity and vascular pulsation driving force are maintained, has the ability of sufficiently dilating the vessel diameter afer an increase in the concentration of blood carbon dioxide, and maintains excretion ability for harmful proteins through h interstitial flow. On the other hand, cerebral artery whose vascular elasticity and vascular pulsation driving force are decreased, loses the ability of sufficiently dilating the vessel diameter in response to an increase in the concentration of blood carbon dioxide, and has its escretion ability for harmful proteins impaired. […]

Q: Which “mini-mental state examination (MMSE)” value [1] does the source give for O=C1CCc2cc(OCCCCc3nnnn3C3CCCCC3)ccc2N1 [cilostazol, 6-[4-(1-cyclohexyl-1H-tetrazole-5-yl)butoxy]3,4-dihydrocarbostyril] here?
A: no change is observed

Q: And the “deposition of Aβ on the perivascular site” value ([2]; cilostazol-containing feed for 8 months from 4 months of age, FIG. 15)?
A: reduced

Q: What about the “deposition of Aβ on the perivascular site” value ([2]; cilostazol-containing feed for 13.5 months from 1.5 months of age, FIG. 16) of the same compound?
A: reduced

Q: What about the “amount of Aβ deposited on a perivascular site” value ([2]; frontal lobe and hippocampus, FIGS. 13 and 14) of the same compound?
A: smaller

Q: What about the “reduction of the annual decrease rate of MMSE scores” value [3] of the same compound?
A: about 80%

Q: What about the “rate of change in MMSE score” value ([4]; dementia treated group (19 cases), first MMSE less than or equal to 21, average±standard error, P value 0.21 vs untreated) of the same compound?
A: 0.5±0.7 /year

Q: What about the “therapeutic effects on dementia” value ([4]; first MMSE less than or equal to 21, treated vs untreated) of the same compound?
A: no statistically significant therapeutic effects on dementia were observed

Q: And the “side effects leading to no consecutive cilostazol treatment” value ([4]; untreated group of dementia survey)?
A: side effects such as diarrhea and headaches

Q: And the “cerebral artery vasodilation ability with the CO2 supply (relative increase in cerebrovascular diameter)” value ([5]; 5% CO2, cilostazol-containing feed for 13.5 months, age 15 months, FIG. 5)?
A: significantly enhances cerebral artery vasodilation ability

Q: And the “cerebral artery vasodilation ability (relative increase rate of the vessel diameter) by the CO2 supply” value ([5]; cilostazol-containing feed for 8 months, age 12 months, FIG. 6)?
A: significantly increases the cerebral artery vasodilation ability
